Test results reported in patent US5229378A, “Glycyrrhetic acid derivatives” (Senju Pharmaceutical Co., Ltd., priority 1991, dated 1993).

How the values were obtained:
[1] = system: lipid peroxide (LPO) in rat brain homogenate; test: Antioxidant activity assay by the method of Stocks (lipid peroxide in brain homogenate, TBA method); assay type: biochemical, male Wistar rats; details: LPO as MDA per mg protein, 37° C., 60 minutes
Method: The antioxidant activity of the compound of the invention was assayed by the method of Stocks.
This experiment was performed using male Wistar rats (about 10 weeks old). After perfusion for removal of blood from the brain, the brain tissue was removed and homogenized in 4 volumes of ice-cooled 0.1M phosphate-NaCl buffer (pH 7.4). The homogenate was centrifuged at 1000×g for 10 minutes and the supernatant was taken. The brain homogenate was diluted with 10 volumes of phosphate-NaCl buffer and a 500 μl portion of the dilution was incubated at 37° C. for 60 minutes. The reaction was quenched by pouring the incubate in ice-water and 490 μl of 0.1M phosphate-NaCl buffer was added. The amount of lipid peroxide (LPO) was determined by the TBA method. The amount of LPO was expressed in the amount of malondialdehyde (MDA) per mg protein. The amount of protein was determined by the method of Lowry.

[2] = system: formalin-induced mouse paw edema; test: Antiinflammatory activity assay, mouse paw edema test (formalin); assay type: in vivo, male ddy mice; details: 200 mg orally, 1 hour before 0.05 ml of 0.75% formalin into right hind paw
Method: The antiinflammatory activity of the compound of the invention was assayed by the mouse paw edema test. The experiment was performed in groups of 6 male ddy mice weighting 20 g-25 g. The volume of the right hind paw of each mouse was measured with a plethysmograph and 200 mg of the compound of the invention was orally administered. After 1 hour, 0.05 ml of 0.75% formalin as a phlogistic agent was injected subcutaneously into the dorsum of the right hind paw and the foot volume was measured at timed intervals. The edema rate and the percent inhibition was calculated from the values found. [formula]

| Compound | % Inhibition ([1]; Dosage 1 × 10^-3 M) [%] | % Inhibition ([1]; Dosage 1 × 10^-4 M) [%] | % Inhibition ([2]; Hour 1) [%] | % Inhibition ([2]; Hour 4) [%] |
| --- | --- | --- | --- | --- |
| CCOC(=O)[C@@]1(C)CC[C@]2(C)CC[C@]3(C)C(=CC(=O)[C@@H]4[C@@]5(C)CC[C@H](OP(=O)(O)OC6=C(O)[C@@H]([C@@H](O)CO)OC6=O)C(C)(C)[C@@H]5CC[C@]43C)[C@@H]2C1 [(2), Ethyl 3-(L-ascorbyl-2-phosphoryl)-glycyrrhetinate] | 95.4 | 44.7 | 18.84 | 28.72 |
| CCCCCCOC(=O)[C@@]1(C)CC[C@]2(C)CC[C@]3(C)C(=CC(=O)[C@@H]4[C@@]5(C)CC[C@H](OP(=O)(O)OC6=C(O)[C@@H]([C@@H](O)CO)OC6=O)C(C)(C)[C@@H]5CC[C@]43C)[C@@H]2C1 [(3), Hexyl 3-(L-ascorbyl-2-phosphoryl)-glycyrrhetinate potassium] | 94.8 | 82.5 | 22.50 | 22.07 |
| CCCCCCCCCCCCCCCCCCOC(=O)[C@@]1(C)CC[C@]2(C)CC[C@]3(C)C(=CC(=O)[C@@H]4[C@@]5(C)CC[C@H](OP(=O)(O)OC6=C(O)[C@@H]([C@@H](O)CO)OC6=O)C(C)(C)[C@@H]5CC[C@]43C)[C@@H]2C1 [(5), Stearyl 3-(L-ascorbyl-2-phosphoryl)-glycyrrhetinate potassium] | – | – | 31.02 | 34.42 |
| COC(=O)[C@@]1(C)CC[C@]2(C)CC[C@]3(C)C(=CC(=O)[C@@H]4[C@@]5(C)CC[C@H](OP(=O)(O)OC6=C(O)[C@@H]([C@@H](O)CO)OC6=O)C(C)(C)[C@@H]5CC[C@]43C)[C@@H]2C1 [(1), Methyl 3-(L-ascorbyl-2-phosphoryl)-glycyrrhetinate] | 95.3 | 87.6 | 36.36 | 37.84 |
| CC1(C)[C@@H](O)CC[C@]2(C)[C@H]3C(=O)C=C4[C@@H]5C[C@@](C)(C(=O)O)CC[C@]5(C)CC[C@@]4(C)[C@]3(C)CC[C@@H]12 [(6), Glycyrrhetic acid] | – | – | 16.28 | 25.37 |
| CCCCCCCCCCCCOC(=O)[C@@]1(C)CC[C@]2(C)CC[C@]3(C)C(=CC(=O)[C@@H]4[C@@]5(C)CC[C@H](OP(=O)(O)OC6=C(O)[C@@H]([C@@H](O)CO)OC6=O)C(C)(C)[C@@H]5CC[C@]43C)[C@@H]2C1 [(4), Lauryl 3-(L-ascorbyl-2-phosphoryl)-glycyrrhetinate potassium] | – | – | 49.03 | 50.57 |
